# Measurements published in ChEMBL document CHEMBL6074649, “An insight into recent developments in imidazole based heterocyclic compounds as anticancer agents: Synthesis, SARs, and mechanism of actions” (Eur J Med Chem, 2024).
# Key:
# [1] = system: HeLa; assay: Antiproliferative activity against human HeLa cells assessed as inhibition of cell growth at 20 uM measured for 48 hrs by MTT assay relative to control; type: functional
# [2] = system: HT-29; assay: Antiproliferative activity against human HT-29 cells assessed as inhibition of cell growth at 20 uM measured for 48 hrs by MTT assay relative to control; type: functional
# [3] = system: A549; assay: Antiproliferative activity against human A549 cells assessed as inhibition of cell growth at 20 uM measured for 48 hrs by MTT assay relative to control; type: functional
# [4] = system: HCT-15; assay: Antiproliferative activity against human HCT-15 cells assessed as inhibition of cell growth at 20 uM measured for 48 hrs by MTT assay relative to control; type: functional
# [5] = system: MDA-MB-231; assay: Antiproliferative activity against human MDA-MB-231 cells assessed as inhibition of cell growth at 20 uM measured for 48 hrs by MTT assay relative to control; type: functional
# [6] = system: NCI-H460; assay: Antiproliferative activity against human NCI-H460 cells assessed as reduction in cell growth by MTT assay; type: functional, cell-based
# [7] = system: NCI-H1299; assay: Antiproliferative activity against human NCI-H1299 cells assessed as reduction in cell growth by MTT assay; type: functional, cell-based
# [8] = system: A549; assay: Antiproliferative activity against A549 cells assessed as reduction in cell growth by MTT assay; type: functional, cell-based; conditions: Homo sapiens
# [9] = system: MCF7; assay: Antiproliferative activity against MCF7 cells assessed as reduction in cell growth by MTT assay; type: functional, cell-based; conditions: Homo sapiens
# [10] = Antiproliferative activity against MRC5 cells assessed as reduction in cell growth by MTT assay; type: toxicity, cell-based; conditions: human
# [11] = system: HepG2; assay: Antiproliferative activity against human HepG2 cells; type: functional, cell-based
# [12] = Antiproliferative activity against mouse 4T1-Luc cells; type: functional, cell-based
# [13] = system: MDA-MB-231; assay: Antiproliferative activity against human MDA_MB-231 cells; type: functional, cell-based
# [14] = system: MCF7; assay: Cytotoxicity against human MCF7 cells assessed as reduction in cell growth incubated for 24 hrs by MTT assay; type: functional, cell-based; conditions: MCF7, 24 h
# [15] = system: HL-60; assay: Cytotoxicity against human HL-60 cells assessed as reduction in cell growth incubated for 24 hrs by MTT assay; type: functional, cell-based; conditions: HL-60, 24 h
# [16] = system: HCT-116; assay: Cytotoxicity against human HCT-116 cells assessed as reduction in cell viability incubated for 24 hrs by MTT assay; type: functional, cell-based; conditions: HCT-116, 24 h
# [17] = Cytotoxicity against HUVEC cells; type: toxicity, cell-based; conditions: human
# [18] = system: A549; assay: Cytotoxicity against human A549 cells assessed as reduction in cell growth; type: functional, cell-based
# [19] = system: BXPC-3; assay: Antiproliferative activity against human BXPC-3 assessed as reduction in cell growth; type: functional, cell-based
# [20] = system: HT-29; assay: Antiproliferative activity against human HT-29 cells assessed as reduction in cell viability incubated for 72 hrs by MTT assay; type: functional, cell-based; conditions: HT-29, 72 h
# [21] = system: A549; assay: Antiproliferative activity against human A549 cells assessed as reduction in cell viability incubated for 72 hrs by MTT assay; type: functional, cell-based; conditions: A549, 72 h
# [22] = system: MCF7; assay: Antiproliferative activity against human MCF7 cells assessed as reduction in cell viability incubated for 72 hrs by MTT assay; type: functional, cell-based; conditions: MCF7, 72 h
# [23] = system: Jurkat; assay: Antiproliferative activity against human Jurkat cells assessed as reduction in cell viability incubated for 72 hrs by MTT assay; type: functional, cell-based
# [24] = system: RS4-11; assay: Antiproliferative activity against human RS4-11 cells assessed as reduction in cell viability incubated for 72 hrs by MTT assay; type: functional, cell-based; conditions: RS4-11, 72 h
# [25] = system: A549; assay: Antiproliferative activity against human A549 cells assessed as reduction in cell growth incubated for 24 hrs by MTT assay; type: functional, cell-based; conditions: A549, 24 h
# [26] = system: MCF7; assay: Antiproliferative activity against human MCF7 cells assessed as reduction in cell growth incubated for 24 hrs by MTT assay; type: functional, cell-based; conditions: MCF7, 24 h
# [27] = system: HepG2; assay: Antiproliferative activity against human HepG2 cells assessed as reduction in cell growth incubated for 24 hrs by MTT assay; type: functional, cell-based; conditions: HepG2, 24 h
# [28] = Antiproliferative activity against human MCF7/MX cells assessed as reduction in cell growth incubated for 24 hrs by MTT assay; type: functional, cell-based
# [29] = system: A549; assay: Cytotoxicity against human A549 cells; type: functional, cell-based
# [30] = system: MCF7; assay: Cytotoxicity against human MCF7 cells after 24 hrs by MTT assay; type: functional, cell-based; conditions: MCF7, 24 h
# [31] = system: HepG2; assay: Cytotoxicity against human HepG2 cells after 24 hrs by MTT assay; type: functional, cell-based; conditions: HepG2, 24 h
# [32] = system: HCT-116; assay: Cytotoxicity against human HCT-116 cells after 24 hrs by MTT assay; type: functional, cell-based; conditions: HCT-116, 24 h
# [33] = Cytotoxicity against human MCF-10A cells measured after 24 hrs by MTT assay; type: toxicity, cell-based
# [34] = system: HeLa; assay: Antiproliferative activity against human HeLa cells assessed as inhibition of cell growth at 0.1 uM measured for 48 hrs by MTT assay relative to control; type: functional; conditions: values are per cent of control
# [35] = system: HT-29; assay: Antiproliferative activity against human HT-29 cells assessed as inhibition of cell growth at 0.1 uM measured for 48 hrs by MTT assay relative to control; type: functional; conditions: HT-29, 48 h, values are per cent of control
# [36] = system: A549; assay: Antiproliferative activity against human A549 cells assessed as inhibition of cell growth at 0.1 uM measured for 48 hrs by MTT assay relative to control; type: functional
# [37] = system: HCT-15; assay: Antiproliferative activity against human HCT-15 cells assessed as inhibition of cell growth at 0.1 uM measured for 48 hrs by MTT assay relative to control; type: functional
# [38] = system: MDA-MB-231; assay: Antiproliferative activity against human MDA-MB-231 cells assessed as inhibition of cell growth at 0.1 uM measured for 48 hrs by MTT assay relative to control; type: functional
# [39] = system: PC-3; assay: Anticancer activity against human PC-3 cells; type: functional, cell-based
# [40] = system: DU-145; assay: Anticancer activity against human DU-145 cells; type: functional, cell-based
# [41] = system: HepG2; assay: Anticancer activity against human HepG2 cells; type: functional, cell-based
# [42] = system: PANC-1; assay: Antiproliferative activity against human PANC-1 cells by MTT assay; type: functional, cell-based
# [43] = system: HT-29; assay: Antiproliferative activity against human HT-29 cells assessed as reduction in cell growth by MTT assay; type: functional, cell-based
# [44] = system: HepG2; assay: Cytotoxicity against human HepG2 cells assessed as reduction in cell growth incubated for 24 hrs by SRB assay; type: functional, cell-based; conditions: HepG2, 24 h
# [45] = system: Caco-2; assay: Cytotoxicity against human Caco-2 cells assessed as reduction in cell growth incubated for 24 hrs by MTT assay; type: functional, cell-based; conditions: Caco-2, 24 h
# [46] = system: HCT-116; assay: Cytotoxicity against human HCT-116 cells assessed as reduction in cell growth incubated for 24 hrs by MTT assay; type: functional, cell-based; conditions: HCT-116, 24 h
# [47] = system: HeLa; assay: Cytotoxicity against human HeLa cells assessed as reduction in cell growth incubated for 24 hrs by MTT assay; type: functional, cell-based
smiles,measurement,setting,value
CCCCCCCCCCCCn1cnc(C(=O)OCC)c1N,inhibition at 20 µM,[1],85%
same,inhibition at 20 µM,[2],82%
same,inhibition at 20 µM,[3],54%
same,inhibition at 20 µM,[4],52%
same,inhibition at 20 µM,[5],69%
CN(C)CCCOc1ccc(-c2nc(-c3ccc(Br)o3)[nH]c2-c2ccc(OCCCN(C)C)cc2)cc1,IC50,[6],4.16 µM
same,IC50,[7],< 0.1 µM
same,IC50,[8],5.82 µM
same,IC50,[9],6.91 µM
same,IC50,[10],8.42 µM
CCOC(=O)c1nn(-c2ccc(Cl)cc2)/c(=N\NC2=NC(c3ccccc3)(c3ccccc3)C(=O)N2)s1,IC50,[11],0.72 µM
Cc1[nH]c(SCc2ccccc2)nc1Cc1ccccc1,IC50,[12],8.03 µM
same,IC50,[13],8.26 µM
S=c1[nH]c(-n2nnc3ccccc32)cn1-c1ccc(Cl)cc1Cl,IC50,[14],0.58 µM
same,IC50,[15],0.4 µM
same,IC50,[16],0.24 µM
same,IC50,[17],13.6 µM
COc1ccc2cc([C@H](C)C3=NC(Cc4ccccc4)C(=O)N3/N=C/c3ccc(N(C)C)cc3)ccc2c1 (stereo partly specified),IC50,[18],9.4 µM
same,IC50,[19],18.3 µM
Cc1[nH]c(SCc2c(F)cccc2F)nc1Cc1ccccc1,IC50,[12],6.66 µM
same,IC50,[13],9.5 µM
COc1ccc(/C=C\c2cc(OC)c(OC)c(OC)c2)cc1O [COMBRETASTATIN A4],IC50,[20],0.18 µM
same,IC50,[21],3.1 µM
same,IC50,[22],0.005 µM
same,IC50,[23],0.0008 µM
same,IC50,[24],0.37 µM
same,IC50,[25],0.86 µM
same,IC50,[26],0.43 µM
same,IC50,[27],0.63 µM
same,IC50,[28],1.49 µM
same,IC50,[29],0.048 µM
same,IC50,[14],3.57 µM
same,IC50,[15],0.77 µM
same,IC50,[16],2.63 µM
same,IC50,[17],119 µM
CC(=O)O[C@@]12CO[C@@H]1C[C@H](O)[C@@]1(C)C(=O)[C@H](O)C3=C(C)[C@@H](OC(=O)[C@H](O)[C@@H](NC(=O)OC(C)(C)C)c4ccccc4)C[C@@](O)([C@@H](OC(=O)c4ccccc4)[C@H]21)C3(C)C [DOCETAXEL ANHYDROUS],IC50,[30],11.1 µM
same,IC50,[31],8.13 µM
same,IC50,[32],14 µM
same,IC50 at 24 h,[33],33.2 µM
COc1cccc2c1C(=O)c1c(O)c3c(c(O)c1C2=O)C[C@@](O)(C(=O)CO)C[C@@H]3O[C@H]1C[C@H](N)[C@H](O)[C@H](C)O1 [DOXORUBICIN],"viability, % of control at 0.1 µM",[34],90%
same,"viability, % of control at 0.1 µM",[35],93%
same,inhibition at 0.1 µM,[36],89%
same,inhibition at 0.1 µM,[37],94%
same,inhibition at 0.1 µM,[38],83%
same,IC50,[39],2.3 µM
same,IC50,[40],4.6 µM
same,IC50,[41],0.62 µM
same,IC50,[42],1.4 µM
same,IC50,[43],1 µM
same,IC50,[44],0.42 µg/mL
same,IC50,[45],5.17 µM
same,IC50,[46],5.64 µM
same,IC50,[47],1.25 µM
same,IC50,[11],0.86 µM
C#Cc1cccc(Nc2ncnc3cc(OCCOC)c(OCCOC)cc23)c1 [ERLOTINIB],IC50,[18],25.2 µM
same,IC50,[19],9.8 µM
